Experimental data published in PMC8474119, “Discovery and SAR Evolution of Pyrazole Azabicyclo[3.2.1]octane Sulfonamides as a Novel Class of Non-Covalent N-Acylethanolamine-Hydrolyzing Acid Amidase (NAAA) Inhibitors for Oral Administration” (Journal of Medicinal Chemistry, 2021).

Molecular target: T1, h-NAAA (Homo sapiens, UniProt Q02083)
T1 construct: made in house; host or cells: HEK-293 cells stably overexpressing human NAAA; enzyme-enriched (lysosomal) lysate
T1 sequence (Q02083 29-125 limits assumed): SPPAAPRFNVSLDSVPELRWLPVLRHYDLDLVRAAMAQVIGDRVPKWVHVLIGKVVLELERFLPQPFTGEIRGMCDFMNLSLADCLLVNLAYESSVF
T1 sequence (Q02083 126-359 limits assumed): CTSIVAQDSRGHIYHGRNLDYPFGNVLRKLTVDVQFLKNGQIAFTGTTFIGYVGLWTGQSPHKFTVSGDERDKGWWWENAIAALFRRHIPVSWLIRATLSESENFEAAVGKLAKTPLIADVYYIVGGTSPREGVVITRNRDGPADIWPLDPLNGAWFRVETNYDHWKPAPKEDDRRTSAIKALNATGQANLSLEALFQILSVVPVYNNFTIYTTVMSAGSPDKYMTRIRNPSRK
Experiment: Fluorogenic human-NAAA assay (h-NAAA, fluo.)
Assay type: biochemical
Conditions: for IC50 / pIC50: h-NAAA (fluo.); for IC50: mean ± SD (n ≥ 3), n.a.: not active @50 μM (<10% inhibition); for LipE: LipE = pIC50 – c Log P (h-NAAA); for pIC50: Table S1
Protocol: Human recombinant proteins were obtained from HEK-293 stable overexpressing human NAAA, AC, and FAAH-1 cell lines, respectively. Cells were grown in Dulbecco’s modified Eagle medium (DMEM) containing 10% FBS, 1% glutamine, 1 mM sodium pyruvate, and 500 μg/mL geneticin (G418). To obtain a high-density cell proliferation, h-NAAA-HEK-293 cells were grown in BelloCell-500 bottle, a compact bioreactor. On the contrary, h-AC and h-FAAH-1-HEK-293 cells were grown in 150 mm dishes and scraped off with cold PBS 1× pH 7.4 at 80% confluence. Cell pellets were collected and stored at −80 °C until protein preparation.
HEK-293 cells stably transfected with the human NAAA or human AC coding sequences were used as the enzyme source. Cells were suspended in 20 mM Tris-HCl (pH 7.4) with 0.32 M sucrose, sonicated, and centrifuged at 800g for 30 min at 4 °C. Supernatants were then centrifuged at 12,000g for 30 min at 4 °C. Pellets were resuspended in PBS buffer (pH 7.4) and subjected to three freeze-thaw cycles at −80 °C. The suspension was finally centrifuged at 105,000g for 1 h at 4 °C, supernatants were collected, protein concentration was measured, and samples were aliquoted and stored at −80 °C until use.
The assay was run in 96-well microplates (Black OptiPlate-96 F; PerkinElmer, Massachusetts, USA), in a total reaction volume of 200 μL. h-NAAA protein preparation (4 μg) was preincubated for 30 min with various concentrations of test compounds or vehicle control (DMSO 5%) in 100 mM citrate/phosphate buffer (pH 4.5) containing 3.0 mM DTT, 0.1% NP40, 0.05% BSA, and 150 mM NaCl. The background (no activity) samples were prepared using assay buffer without h-NAAA and DMSO (5%). N-(4-methyl-2-oxo-chromen-7-yl)-hexadecanamide (PAMCA)[60] was used as a substrate (2 μM) and the reaction was carried out for 50 min at 37 °C. Fluorescence was measured with EnVision 2014 Multilabel Reader (PerkinElmer, Massachusetts, USA) using an excitation wavelength of 355 nm and an emission of 460 nm. IC50 values were calculated by non-linear regression analysis of log[concentration]/response curves generated with mean replicate values using a four-parameter Hill equation curve fitting with GraphPad Prism 5 (GraphPad Software Inc., CA, USA).

| SMILES | IC50 | LipE | pIC50 |
| --- | --- | --- | --- |
| Cc1n[nH]c(C)c1S(=O)(=O)N1[C@@H]2CC[C@H]1C[C@H](Oc1ccccc1)C2 [Compound 32, (1R,3s,5S)-8-((3,5-Dimethyl-1H-pyrazol-4-yl)sulfonyl)-3-phenoxy-8-azabicyclo[3.2.1]octane] | 655 ± 45 nM | – | – |
| Cc1ccc(O[C@H]2C[C@H]3CC[C@@H](C2)N3S(=O)(=O)c2c(C)n[nH]c2C)cc1 [Compound 33, (1R,3r,5S)-8-((3,5-Dimethyl-1H-pyrazol-4-yl)sulfonyl)-3-(p-tolyloxy)-8-azabicyclo[3.2.1]octane] | 36 ± 4 nM | – | – |
| Cc1ccc(O[C@@H]2C[C@H]3CC[C@@H](C2)N3S(=O)(=O)c2c(C)n[nH]c2C)cc1 [Compound 34, (1R,3s,5S)-8-((3,5-Dimethyl-1H-pyrazol-4-yl)sulfonyl)-3-(p-tolyloxy)-8-azabicyclo[3.2.1]octane] | 8710 ± 340 nM | – | – |
| Cc1cccc(OC2CC3CCC(C2)N3S(=O)(=O)c2c(C)n[nH]c2C)c1 [Compound 35, (1R,3r,5S)-8-((3,5-Dimethyl-1H-pyrazol-4-yl)sulfonyl)-3-(m-tolyloxy)-8-azabicyclo[3.2.1]octane] | 614 ± 140 nM | – | – |
| Cc1ccccc1O[C@H]1C[C@H]2CC[C@@H](C1)N2S(=O)(=O)c1c(C)n[nH]c1C [Compound 36, (1R,3r,5S)-8-((3,5-Dimethyl-1H-pyrazol-4-yl)sulfonyl)-3-(o-tolyloxy)-8-azabicyclo[3.2.1]octane] | 291 ± 10 nM | – | – |
| CCc1ccc(O[C@H]2C[C@H]3CC[C@@H](C2)N3S(=O)(=O)c2c(C)n[nH]c2C)cc1 [Compound 37, (1R,3r,5S)-8-((3,5-Dimethyl-1H-pyrazol-4-yl)sulfonyl)-3-(4-ethylphenoxy)-8-azabicyclo[3.2.1]octane] | 51 ± 5 nM | – | – |
| Cc1n[nH]c(C)c1S(=O)(=O)N1[C@@H]2CC[C@H]1C[C@@H](Oc1ccc(C(C)C)cc1)C2 [Compound 38, (1R,3r,5S)-8-((3,5-Dimethyl-1H-pyrazol-4-yl)sulfonyl)-3-(4-isopropylphenoxy)-8-azabicyclo[3.2.1]octane] | 744 ± 90 nM | – | – |
| CCCCCCc1ccc(O[C@H]2C[C@H]3CC[C@@H](C2)N3S(=O)(=O)c2c(C)n[nH]c2C)cc1 [Compound 41, (1R,3r,5S)-8-((3,5-Dimethyl-1H-pyrazol-4-yl)sulfonyl)-3-(4-hexylphenoxy)-8-azabicyclo[3.2.1]octane] | 19 ± 1 nM | – | – |
| Cc1n[nH]c(C)c1S(=O)(=O)N1[C@@H]2CC[C@H]1C[C@@H](Oc1ccc(CCC(C)C)cc1)C2 [Compound 42, (1R,3r,5S)-8-((3,5-Dimethyl-1H-pyrazol-4-yl)sulfonyl)-3-(4-isopentylphenoxy)-8-azabicyclo[3.2.1]octane] | 114 ± 10 nM | – | – |
| Cc1n[nH]c(C)c1S(=O)(=O)N1[C@@H]2CC[C@H]1C[C@@H](Oc1ccc(C(F)(F)F)cc1)C2 [Compound 43, (1R,3r,5S)-8-((3,5-Dimethyl-1H-pyrazol-4-yl)sulfonyl)-3-(4-(trifluoromethyl)phenoxy)-8-azabicyclo[3.2.1]octane] | 212 ± 20 nM | – | – |
| COc1ccc(O[C@H]2C[C@H]3CC[C@@H](C2)N3S(=O)(=O)c2c(C)n[nH]c2C)cc1 [Compound 44, (1R,3r,5S)-8-((3,5-Dimethyl-1H-pyrazol-4-yl)sulfonyl)-3-(4-methoxyphenoxy)-8-azabicyclo[3.2.1]octane] | 175 ± 15 nM | – | – |
| Cc1n[nH]c(C)c1S(=O)(=O)N1[C@@H]2CC[C@H]1C[C@@H](Oc1ccc(C#N)cc1)C2 [Compound 45] | 757 ± 80 nM | – | – |
| Cc1n[nH]c(C)c1S(=O)(=O)N1[C@@H]2CC[C@H]1C[C@@H](Oc1ccc(F)cc1)C2 [Compound 46, (1R,3r,5S)-8-((3,5-Dimethyl-1H-pyrazol-4-yl)sulfonyl)-3-(4-fluorophenoxy)-8-azabicyclo[3.2.1]octane] | 143 ± 7 nM | – | – |
| CCCOc1ccc(O[C@H]2C[C@H]3CC[C@@H](C2)N3S(=O)(=O)c2c(C)n[nH]c2C)cc1 [Compound 47, (1R,3r,5S)-8-((3,5-Dimethyl-1H-pyrazol-4-yl)sulfonyl)-3-(4-propoxyphenoxy)-8-azabicyclo[3.2.1]octane] | 450 ± 70 nM | 3.55 | 6.35 |
| CCOCc1ccc(O[C@H]2C[C@H]3CC[C@@H](C2)N3S(=O)(=O)c2c(C)n[nH]c2C)cc1 [Compound 48, (1R,3r,5S)-8-((3,5-Dimethyl-1H-pyrazol-4-yl)sulfonyl)-3-(4-(ethoxymethyl)phenoxy)-8-azabicyclo[3.2.1]octane] | 16 ± 2 nM | 5.70 | 7.79 |
